# According to US6403645B2, “Antidepressant effect of norepinephrine uptake 2 inhibitors and combined medications including them” (President and Fellows of Harvard College, priority 2000, dated 2002):
# Test: Urinary levels of norepinephrine and normetanephrine in depressed patients treated with desipramine
# Format: in vivo
# Source text: (Plasma levels of normetanephrine were not measured in these studies.)
# [1] = by the fourth week of treatment
structure (smiles),measurement,setting,value
CNCCCN1c2ccccc2CCc2ccccc21 [desipramine],urinary levels of norepinephrine,after one week of treatment,small decreases
same,urinary levels of normetanephrine,after one week of treatment,small decreases
same,urinary levels of norepinephrine,[1],statistically significant increases
same,urinary levels of normetanephrine,[1],statistically significant increases
